Calls of active or inactive are those of the source.
Assays:
[1] = biological target: Glycogen synthase kinase-3 beta (Homo sapiens, UniProt P49841); assay: GSK3beta kinase inhibitors, dose response, biochemical, microfluidics, dry powder samples, set 2 (AID 623989); type: functional
[2] = biological target: Glycogen synthase kinase-3 alpha (Homo sapiens, UniProt P49840); assay: human GSK3 alpha kinase inhibition, dose response, selectivity assay for GSK3beta inhibitor project, biochemical, microfluidics, dry powder samples, set 2 (AID 623978); type: functional
[3] = NIH-3T3 fibroblast cytotoxicity, dose response, cytotoxicity control, cell-based, fluorescence, Alamar Blue, secondary assay (AID 2327); type: functional;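 note: NIH-3T3 mouse fibroblasts cultured with fluconazole at 8 µg/mL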
[4] = biological target: T1, Delta-type opioid receptor (Homo sapiens, UniProt P41143); assay: HTS Image-Based Screen for Antagonists of the DOR Receptor. [Related pubchem assays (depositor defined):AID1777, AID1785, AID1786, AID2133]; type: functional
T1 sequence (P41143 whole entry): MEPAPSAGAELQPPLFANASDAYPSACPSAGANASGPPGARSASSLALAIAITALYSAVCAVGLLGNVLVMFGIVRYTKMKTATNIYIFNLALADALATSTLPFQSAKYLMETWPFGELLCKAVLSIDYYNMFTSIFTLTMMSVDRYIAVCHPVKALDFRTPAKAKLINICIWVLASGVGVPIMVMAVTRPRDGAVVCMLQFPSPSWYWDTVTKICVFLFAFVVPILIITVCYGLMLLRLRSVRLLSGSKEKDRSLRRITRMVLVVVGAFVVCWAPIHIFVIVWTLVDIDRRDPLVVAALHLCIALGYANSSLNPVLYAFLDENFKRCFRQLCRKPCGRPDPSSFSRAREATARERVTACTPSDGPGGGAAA

Mu-type opioid receptor = Mu-type opioid receptor (Homo sapiens, UniProt P35372); assay: HTS Image-Based Screen for Agonists of the MOR Receptor. [Related pubchem assays (depositor defined):AID1777, AID1785, AID1786, AID2133]; type: functional;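 note: imaging of beta-arrestin GFP recruitment into spots after receptor activation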
Chain of Mu-type opioid receptor (P35372 whole entry): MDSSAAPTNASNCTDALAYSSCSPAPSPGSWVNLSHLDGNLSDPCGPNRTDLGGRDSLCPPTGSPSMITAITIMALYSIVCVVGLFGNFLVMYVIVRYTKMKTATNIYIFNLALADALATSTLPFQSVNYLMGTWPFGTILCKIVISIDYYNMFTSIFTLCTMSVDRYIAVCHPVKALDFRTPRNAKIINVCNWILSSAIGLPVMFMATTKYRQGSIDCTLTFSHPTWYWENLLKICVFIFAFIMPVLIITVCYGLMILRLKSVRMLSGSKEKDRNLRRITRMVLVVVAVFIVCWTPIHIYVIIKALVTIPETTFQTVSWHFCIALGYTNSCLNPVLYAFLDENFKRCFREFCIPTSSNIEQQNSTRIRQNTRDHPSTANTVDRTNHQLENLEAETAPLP

[5] = Luminescence Cell-Based Dose Confirmation HTS to Identify Activators of 5'UTR Stem-Loop Driven Alpha-Synuclein mRNA Translation in H4 Neuroglioblastoma Cells. [Related pubchem assays: 1829 (Project Summary), 1814 (Primary HTS)]; type: functional
[6] = Luminescence Cell-Based Dose Response HTS to Identify Activators of Luciferase Translation or Activity in H4 […] Cells. [Related pubchem assays: 1829 (Project Summary), 1814 (Primary HTS)]; type: functional
[7] = biological target: T1, Delta-type opioid receptor; assay: HTS Image-Based Screen for Agonists of the DOR Receptor. [Related pubchem assays (depositor defined):AID1777, AID1786, AID2133]; type: functional
BJ [8] = assay: cytotoxicity toward BJ-TERT fibroblasts, dose response, cell-based, RAS-independent, luminescence (AID 1933); type: functional; details: Homo sapiens
H4 = assay: Luminescence Cell-Based Dose Response HTS to Identify Activators of 5'UTR Stem-Loop Driven Prion Protein mRNA Translation in H4 Neuroglioblastoma Cells. [Related pubchem assays: 1829 (Project Summary), 1814 (Primary HTS)]; type: functional; details: Homo sapiens
Beta-galactosidase [9] = biological target: T2, Beta-galactosidase (Escherichia coli, UniProt Q8VNN2); assay: PubChem AID 485352; type: functional
T2 sequence (Q8VNN2 whole entry): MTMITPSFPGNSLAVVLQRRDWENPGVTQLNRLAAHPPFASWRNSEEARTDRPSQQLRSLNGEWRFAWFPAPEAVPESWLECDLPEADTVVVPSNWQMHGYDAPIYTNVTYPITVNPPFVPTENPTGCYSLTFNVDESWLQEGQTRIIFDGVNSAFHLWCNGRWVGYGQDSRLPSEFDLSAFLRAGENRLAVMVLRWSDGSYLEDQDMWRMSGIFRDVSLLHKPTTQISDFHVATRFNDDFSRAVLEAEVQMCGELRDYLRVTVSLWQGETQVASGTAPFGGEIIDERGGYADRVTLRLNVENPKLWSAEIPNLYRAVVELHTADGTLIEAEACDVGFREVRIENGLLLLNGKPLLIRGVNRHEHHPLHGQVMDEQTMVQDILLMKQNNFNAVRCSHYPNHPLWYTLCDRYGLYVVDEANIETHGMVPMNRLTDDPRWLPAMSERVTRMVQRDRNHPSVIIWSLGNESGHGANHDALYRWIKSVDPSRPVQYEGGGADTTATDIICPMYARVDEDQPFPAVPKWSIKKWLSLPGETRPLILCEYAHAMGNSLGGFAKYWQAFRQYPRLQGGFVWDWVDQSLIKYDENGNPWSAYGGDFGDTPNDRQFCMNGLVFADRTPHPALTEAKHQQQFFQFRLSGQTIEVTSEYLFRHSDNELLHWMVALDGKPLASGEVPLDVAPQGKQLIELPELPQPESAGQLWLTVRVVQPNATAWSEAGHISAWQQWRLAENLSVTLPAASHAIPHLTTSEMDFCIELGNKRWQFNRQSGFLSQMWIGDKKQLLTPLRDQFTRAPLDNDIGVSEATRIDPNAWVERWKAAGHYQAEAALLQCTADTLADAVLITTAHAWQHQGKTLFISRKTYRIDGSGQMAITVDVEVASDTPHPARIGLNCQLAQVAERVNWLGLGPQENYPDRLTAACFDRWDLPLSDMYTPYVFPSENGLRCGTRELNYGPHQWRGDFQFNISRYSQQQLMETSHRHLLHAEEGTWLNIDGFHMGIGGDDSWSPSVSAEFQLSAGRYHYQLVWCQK

BJ [10] = assay: cells; type: functional, cell-based; details: Homo sapiens
[11] = Luminescence-based dose response cell-based high throughput screening assay for cytotoxic compounds using the IEC-6 intestinal epithelial cell line. [Related pubchem assays: 1858 (Summary AID.), 1825 (Counterscreen.), 1907 (Confirmation screen.)]; type: functional
[12] = biological target: Type-1 angiotensin II receptor (Homo sapiens, UniProt P30556); assay: AT1 receptor antagonists, dose response, selectivity assay for APJ receptor antagonist project, cell-based, uHTS hits (AID 463214); type: functional;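 note: antagonist potency against angiotensin II stimulated AT1 response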
[13] = biological target: T3, Kappa-type opioid receptor (Homo sapiens, UniProt P41145); type: functional
T3 sequence (P41145 whole entry): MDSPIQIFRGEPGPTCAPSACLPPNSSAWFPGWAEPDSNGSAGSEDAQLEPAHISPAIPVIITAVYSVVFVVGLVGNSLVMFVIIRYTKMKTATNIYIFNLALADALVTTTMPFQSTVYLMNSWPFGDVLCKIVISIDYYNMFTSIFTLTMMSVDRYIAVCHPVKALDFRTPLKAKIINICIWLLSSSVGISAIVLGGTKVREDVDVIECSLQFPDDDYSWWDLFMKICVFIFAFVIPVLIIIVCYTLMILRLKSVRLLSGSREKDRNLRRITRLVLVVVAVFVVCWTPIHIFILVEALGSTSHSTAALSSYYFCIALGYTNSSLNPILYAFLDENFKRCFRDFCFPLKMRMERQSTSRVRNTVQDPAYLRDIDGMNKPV

Beta-galactosidase [14] = biological target: T2, Beta-galactosidase; type: functional
BJ [15] = assay: cytotoxicity toward BJ-TERT-LT-ST fibroblasts, dose response, cell-based, RAS-independent, luminescence (AID 1935); type: functional; details: Homo sapiens;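 note: BJ fibroblasts immortalized with TERT plus LT and ST oncogenes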
[16] = biological target: T3, Kappa-type opioid receptor; type: functional; remark: listed apart in the source
[17] = cytotoxicity toward DRD oncogenic fibroblasts, dose response, cell-based, non-viral oncogenic, luminescence (AID 1934); type: functional; details: Homo sapiens
[18] = cytotoxicity in HEK-293T cells, dose response, cytotoxicity control for TCR NF-kB inhibitor project, luminescence, T-cell screen hits (AID 489026); type: functional, cell-based;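 note: cells exposed to compound about 14 hours before the viability readout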
Vero [19] = assay: cells; type: functional, cell-based; details: Chlorocebus sabaeus
BJ [20] = assay: cytotoxicity toward Ras-transformed BJeLR fibroblasts, dose response, cell-based, alamar blue fluorescence, cherrypicked samples (AID 2631); type: functional; details: Homo sapiens;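 note: confirmatory dose-response assay in RAS-dependent BJ fibroblasts engineered with TERT, LT and ST, with cytotoxicity read by fluorescence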
Vero [21] = assay: cells; type: functional; details: Chlorocebus sabaeus
[22] = biological target: T4, Polyadenylate-binding protein 1 (Homo sapiens, UniProt P11940); assay: PABP1 MLLE–PAM2 interaction inhibitors, dose response, miRNA deadenylation inhibitor project, biochemical, fluorescence polarization, Cy5-PAM2 peptide, secondary (AID 602260); type: functional; details: read-out: IC50_Mean
T4 sequence (P11940 whole entry): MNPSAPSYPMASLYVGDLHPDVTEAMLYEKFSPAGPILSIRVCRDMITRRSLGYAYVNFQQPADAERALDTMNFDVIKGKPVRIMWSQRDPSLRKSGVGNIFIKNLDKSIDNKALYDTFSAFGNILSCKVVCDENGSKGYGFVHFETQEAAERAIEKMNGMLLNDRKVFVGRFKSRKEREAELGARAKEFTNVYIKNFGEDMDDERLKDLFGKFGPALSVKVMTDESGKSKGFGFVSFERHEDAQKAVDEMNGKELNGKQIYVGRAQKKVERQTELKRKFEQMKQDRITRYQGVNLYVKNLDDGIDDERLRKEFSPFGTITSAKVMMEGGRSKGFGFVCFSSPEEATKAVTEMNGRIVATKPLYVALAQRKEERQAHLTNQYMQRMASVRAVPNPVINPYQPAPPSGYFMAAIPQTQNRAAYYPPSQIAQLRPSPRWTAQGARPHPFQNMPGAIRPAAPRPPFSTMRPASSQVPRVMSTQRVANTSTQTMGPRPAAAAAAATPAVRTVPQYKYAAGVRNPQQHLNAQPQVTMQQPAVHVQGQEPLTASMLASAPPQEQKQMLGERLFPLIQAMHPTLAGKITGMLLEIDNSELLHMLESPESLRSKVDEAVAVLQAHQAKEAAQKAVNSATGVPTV

[23] = Shn3 3'UTR reporter inhibitors, dose response, cell-based, Clone20 osteoblasts, firefly luciferase, cherry-picked (AID 624132); type: functional;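 note: firefly luciferase luminescence from reporter carrying the Shn3 3'UTR in osteoblasts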
[24] = biological target: T4, Polyadenylate-binding protein 1; assay: PABP1 MLLE–PAM2 binding inhibitor potency, dose response, biochemical, fluorescence polarization, FITC-PAM2 peptide (AID 602259); type: functional; details: read-out: IC50_Mean
[25] = biological target: 26S proteasome non-ATPase regulatory subunit 14 (Homo sapiens, UniProt O00487); assay: inhibition of proteasome subunit RPN11 – biochemical, fluorescence polarization, uHTS hits, confirmation (AID 602368); type: functional
[26] = control 3'UTR Renilla luciferase suppression, dose response, counter-screen for Shn3 inhibitor project, cell-based, Clone20-Shn3RL, cherry-picked (AID 624133); type: functional
[27] = biological target: 72 kDa type IV collagenase (Homo sapiens, UniProt P08253); assay: Dose Response validation of uHTS RPN11 inhibitor hits using a MMP-2 Fluorescence assay.; type: functional
Prothrombin = Prothrombin (Bos taurus, UniProt P00735); assay: thrombin inhibition, dose response, biochemical, fluorescence polarization, uHTS hits (AID 602369); type: functional
[28] = biological target: Multidrug resistance protein CDR2 (Candida albicans (strain SC5314 / ATCC MYA-2876) (Yeast), UniProt P78595); assay: CaCDR2 efflux pump inhibitors in yeast, dose response, S. cerevisiae AD1-8u, singleplex, Cherry Pick1 hits (AID 588604); type: functional
Chain of Multidrug resistance protein CDR2 (P78595 whole entry): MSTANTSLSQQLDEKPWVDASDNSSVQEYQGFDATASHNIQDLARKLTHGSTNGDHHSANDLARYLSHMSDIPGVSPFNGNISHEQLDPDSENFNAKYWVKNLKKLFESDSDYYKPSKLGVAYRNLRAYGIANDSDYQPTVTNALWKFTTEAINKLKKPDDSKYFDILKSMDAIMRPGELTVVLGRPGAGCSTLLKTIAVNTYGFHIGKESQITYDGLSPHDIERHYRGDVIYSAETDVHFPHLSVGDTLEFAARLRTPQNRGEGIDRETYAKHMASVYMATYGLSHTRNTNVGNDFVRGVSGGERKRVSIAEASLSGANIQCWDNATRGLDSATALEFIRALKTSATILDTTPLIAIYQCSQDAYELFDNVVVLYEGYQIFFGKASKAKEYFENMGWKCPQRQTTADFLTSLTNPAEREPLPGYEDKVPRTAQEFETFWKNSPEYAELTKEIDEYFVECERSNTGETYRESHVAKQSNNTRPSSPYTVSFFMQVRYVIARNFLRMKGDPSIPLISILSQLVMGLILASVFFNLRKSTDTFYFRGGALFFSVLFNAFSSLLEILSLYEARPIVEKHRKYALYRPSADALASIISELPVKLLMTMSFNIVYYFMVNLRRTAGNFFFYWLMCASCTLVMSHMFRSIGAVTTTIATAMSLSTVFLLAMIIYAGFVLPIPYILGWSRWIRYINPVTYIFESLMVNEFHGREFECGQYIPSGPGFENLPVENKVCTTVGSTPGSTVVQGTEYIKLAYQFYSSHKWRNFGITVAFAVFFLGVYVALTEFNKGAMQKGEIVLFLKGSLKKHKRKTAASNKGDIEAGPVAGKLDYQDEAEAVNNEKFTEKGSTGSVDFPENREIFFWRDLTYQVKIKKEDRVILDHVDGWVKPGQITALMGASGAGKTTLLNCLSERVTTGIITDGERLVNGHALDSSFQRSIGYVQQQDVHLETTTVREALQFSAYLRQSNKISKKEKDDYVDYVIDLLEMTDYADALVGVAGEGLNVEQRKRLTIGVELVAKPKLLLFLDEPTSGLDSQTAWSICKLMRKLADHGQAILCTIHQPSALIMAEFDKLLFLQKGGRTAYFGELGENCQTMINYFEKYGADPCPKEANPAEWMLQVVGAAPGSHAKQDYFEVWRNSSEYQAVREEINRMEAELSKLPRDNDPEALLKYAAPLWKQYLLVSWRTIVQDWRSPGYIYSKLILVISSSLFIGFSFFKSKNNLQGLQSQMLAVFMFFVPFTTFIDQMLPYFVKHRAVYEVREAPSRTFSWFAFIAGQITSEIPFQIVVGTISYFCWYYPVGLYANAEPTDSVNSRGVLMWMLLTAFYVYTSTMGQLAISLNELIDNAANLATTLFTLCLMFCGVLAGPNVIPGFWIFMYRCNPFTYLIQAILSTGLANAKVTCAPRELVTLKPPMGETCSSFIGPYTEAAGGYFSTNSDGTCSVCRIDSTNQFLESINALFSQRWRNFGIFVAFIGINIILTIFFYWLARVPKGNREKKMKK

[29] = SAR analysis of small molecule activators of Apaf-1 using a LZ-Caspase-9/Caspase-3 Fluorescent Selectivity assay - Set 2.; type: functional; details: read-out: EC50_Mean
[30] = biological target: T5, Apoptotic protease-activating factor 1 (Homo sapiens, UniProt O14727); assay: SAR analysis of small molecule Activators of Apaf-1 in a Fluorescent assay - set 2.; type: functional; details: read-out: EC50_Mean
T5 sequence (O14727 whole entry): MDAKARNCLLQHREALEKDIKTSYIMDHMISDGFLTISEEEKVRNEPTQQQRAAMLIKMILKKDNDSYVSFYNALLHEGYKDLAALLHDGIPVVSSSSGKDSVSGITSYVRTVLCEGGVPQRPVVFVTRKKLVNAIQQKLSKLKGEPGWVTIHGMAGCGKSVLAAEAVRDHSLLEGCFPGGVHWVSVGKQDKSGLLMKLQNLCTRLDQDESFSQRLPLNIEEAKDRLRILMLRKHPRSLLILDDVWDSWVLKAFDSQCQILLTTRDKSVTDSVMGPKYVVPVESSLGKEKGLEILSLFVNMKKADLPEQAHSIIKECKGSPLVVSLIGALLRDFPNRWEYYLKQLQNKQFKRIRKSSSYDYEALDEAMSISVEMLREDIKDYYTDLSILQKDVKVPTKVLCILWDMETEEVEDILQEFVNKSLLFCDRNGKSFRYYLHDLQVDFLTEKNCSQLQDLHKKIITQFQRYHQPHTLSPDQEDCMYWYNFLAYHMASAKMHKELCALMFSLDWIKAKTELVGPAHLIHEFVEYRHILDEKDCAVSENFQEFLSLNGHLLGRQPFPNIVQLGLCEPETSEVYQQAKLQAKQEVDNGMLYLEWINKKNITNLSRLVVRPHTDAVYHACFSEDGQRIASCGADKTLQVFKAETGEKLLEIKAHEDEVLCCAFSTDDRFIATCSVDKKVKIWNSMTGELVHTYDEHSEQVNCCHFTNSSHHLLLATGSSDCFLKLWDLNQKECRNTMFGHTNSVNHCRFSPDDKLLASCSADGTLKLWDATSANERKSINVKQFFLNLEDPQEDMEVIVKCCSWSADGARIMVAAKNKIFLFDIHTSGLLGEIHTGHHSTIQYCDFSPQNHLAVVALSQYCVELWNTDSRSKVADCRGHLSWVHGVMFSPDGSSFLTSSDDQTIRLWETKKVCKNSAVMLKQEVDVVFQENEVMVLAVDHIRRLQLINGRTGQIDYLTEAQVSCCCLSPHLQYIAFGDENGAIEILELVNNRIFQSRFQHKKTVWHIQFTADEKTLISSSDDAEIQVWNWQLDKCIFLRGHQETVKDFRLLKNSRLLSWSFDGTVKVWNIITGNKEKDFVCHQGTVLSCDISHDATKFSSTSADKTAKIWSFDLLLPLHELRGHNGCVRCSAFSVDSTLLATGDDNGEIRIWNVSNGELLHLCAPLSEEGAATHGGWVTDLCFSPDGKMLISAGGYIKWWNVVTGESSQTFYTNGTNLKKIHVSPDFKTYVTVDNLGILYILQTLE

[31] = biological target: Serine/threonine-protein kinase pim-1 (Homo sapiens, UniProt P11309); type: functional
[32] = biological target: Casein kinase II subunit alpha (Homo sapiens, UniProt P68400); type: functional
[33] = biological target: Serine/threonine-protein kinase pim-3 (Homo sapiens, UniProt Q86V86); type: functional;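 note: value obtained as one member of a broad kinase panel profiling effort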
[34] = biological target: Casein kinase I isoform delta (Homo sapiens, UniProt P48730); type: functional;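 note: measured as one member (CSNK1D) of a kinome panel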
[35] = biological target: Dual specificity protein kinase CLK4 (Homo sapiens, UniProt Q9HAZ1); type: functional
Chain of Dual specificity protein kinase CLK4 (Q9HAZ1 whole entry): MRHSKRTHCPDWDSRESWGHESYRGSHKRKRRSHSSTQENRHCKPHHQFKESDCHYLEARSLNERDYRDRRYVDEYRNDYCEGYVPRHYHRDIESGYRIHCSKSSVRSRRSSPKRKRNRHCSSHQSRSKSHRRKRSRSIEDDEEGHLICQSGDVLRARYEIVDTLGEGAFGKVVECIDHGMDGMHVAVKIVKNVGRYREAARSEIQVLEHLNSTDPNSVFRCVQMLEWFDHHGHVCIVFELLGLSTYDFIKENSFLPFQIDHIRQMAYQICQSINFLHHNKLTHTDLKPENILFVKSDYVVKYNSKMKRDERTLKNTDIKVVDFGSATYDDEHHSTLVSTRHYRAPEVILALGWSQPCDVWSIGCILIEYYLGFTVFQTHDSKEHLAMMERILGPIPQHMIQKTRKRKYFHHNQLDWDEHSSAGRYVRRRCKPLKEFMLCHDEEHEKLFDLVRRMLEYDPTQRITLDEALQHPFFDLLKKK

[36] = biological target: Mitogen-activated protein kinase kinase kinase kinase 4 (Homo sapiens, UniProt O95819); type: functional
[37] = biological target: Dual specificity tyrosine-phosphorylation-regulated kinase 1A (Homo sapiens, UniProt Q13627); type: functional;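 note: measured against DYRK1A as one member of a broad kinome profiling panel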
[38] = biological target: DNA dC->dU-editing enzyme APOBEC-3A (Homo sapiens, UniProt P31941); assay: SAR analysis of small molecule inhibitors of APOBEC3A DNA Deaminase via a fluorescence-based single-stranded DNA deaminase assay - Set 2.; type: functional; details: read-out: IC50_Mean
Chain of DNA dC->dU-editing enzyme APOBEC-3A (P31941 whole entry): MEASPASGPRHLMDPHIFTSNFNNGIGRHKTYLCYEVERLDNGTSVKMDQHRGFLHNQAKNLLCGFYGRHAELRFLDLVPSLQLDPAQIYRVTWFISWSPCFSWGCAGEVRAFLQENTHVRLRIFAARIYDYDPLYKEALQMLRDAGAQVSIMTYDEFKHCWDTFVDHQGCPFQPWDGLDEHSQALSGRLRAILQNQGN

[39] = biological target: DNA dC->dU-editing enzyme APOBEC-3G (Homo sapiens, UniProt Q9HC16); assay: SAR analysis of small molecule inhibitors of APOBEC3G DNA Deaminase via a fluorescence-based single-stranded DNA deaminase assay - Set 2.; type: functional; details: read-out: IC50_Mean
[40] = biological target: Melanin-concentrating hormone receptor 1 (Homo sapiens, UniProt Q99705); assay: Late-stage fluorescence-based counterscreen for antagonists of the G-protein coupled receptor 7 (GPR7): cell-based dose response assay to identify antagonists of the melanin-concentrating hormone receptor 1 (MCHR1) Set 6.; type: functional
[41] = biological target: T6, Neuropeptides B/W receptor type 1 (Homo sapiens, UniProt P48145); assay: GPR7 antagonist potency, late-stage follow-up, cell-based, fluorescence, dose response, set 6 (AID 588583); type: functional
T6 sequence (P48145 whole entry): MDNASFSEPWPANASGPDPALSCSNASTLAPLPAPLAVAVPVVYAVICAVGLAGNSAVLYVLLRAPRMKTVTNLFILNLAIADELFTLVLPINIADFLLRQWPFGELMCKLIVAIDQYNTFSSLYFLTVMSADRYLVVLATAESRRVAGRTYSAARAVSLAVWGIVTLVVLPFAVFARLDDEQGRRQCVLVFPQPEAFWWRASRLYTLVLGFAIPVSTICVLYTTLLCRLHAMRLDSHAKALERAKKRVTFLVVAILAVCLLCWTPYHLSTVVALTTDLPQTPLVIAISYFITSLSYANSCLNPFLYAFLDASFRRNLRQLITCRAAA

## Cc1cccc(OCC(=O)Nc2ccc3c(c2)C(=O)NC3=O)c1
[1]
  AC50: 1.36 µM (active)
[2]
  AC50: 8 µM (active)

## O=C(Sc1cccc2cccnc12)c1ccccc1Br
[3]
  EC50: 31.8 µM (active)
[4]
  IC50: > 32 µM (inactive)
Mu-type opioid receptor
  EC50: > 32 µM (inactive)
[5]
  EC50: > 120 µM (not active)
[6]
  EC50: > 120 µM (not active)
[7]
  EC50: > 32 µM (inactive)
BJ [8]
  EC50: 12.7 µM (active)
H4
  EC50: > 120 µM (not active)
Beta-galactosidase [9]
  EC50: > 40 µM (inactive)
BJ [10]
  EC50: > 150 µM (inconclusive)
[11]
  IC50: 0.514 µM (active)
[12]
  IC50: 3.51 µM (active)
[13]
  IC50: 10.5 µM (active)
Beta-galactosidase [14]
  EC50: > 31.5 µM (inactive)
BJ [15]
  EC50: 36.8 µM (active)
[16]
  IC50: > 32 µM
[17]
  EC50: 2.48 µM (active)
[18]
  IC50: 57.8 µM (inactive)
Vero [19]
  IC50: > 25 µM (active)
BJ [20]
  EC50: 0.328 µM (active)
Vero [21]
  CC50: 9.91 µM (active)
[22]
  IC50: > 66 µM (inactive)
[23]
  AC50: 0.383 µM (active)
[24]
  IC50: > 66 µM (inactive)
[25]
  IC50: 6.65 µM (active)
[26]
  AC50: 13.3 µM (active)
[27]
  IC50: > 100 µM (inactive)
Prothrombin
  IC50: > 100 µM (inactive)

## O=C(Oc1ccc2c(=O)c(Oc3ccc4ccccc4c3)coc2c1)c1cncc(Br)c1
[28]
  EC50: 22.2 µM (active)

## CC(CN1CCOCC1)C(=O)O (centres undefined)
[29]
  EC50: > 100 µM (inactive)
[30]
  EC50: > 100 µM (inactive)

## O=c1oc2ccccc2c2[nH]c(-c3ccccc3)nc12
[31]
  Ki: 1 µM (active)
[32]
  Ki: 2 µM (active)
[33]
  Ki: 1.58 µM (active)
[34]
  Ki: 6.31 µM (active)
[35]
  Ki: 1.26 µM (active)
[36]
  Ki: 5.01 µM (active)
[37]
  Ki: 1.58 µM (active)

## O=C(O)c1cc2ncccn2n1
[38]
  IC50: 2.6 µM (active)
[39]
  IC50: 1.73 µM (active)

## N#CC(c1ccc([N+](=O)[O-])cc1)c1c(Cl)cnn(Cc2cccc3ccccc23)c1=O (centres undefined)
[40]
  IC50: 0.303 µM (active)
[41]
  IC50: 0.303 µM (active)

From ChEMBL document CHEMBL1201862, “PubChem BioAssay data set” (2004)
